Patent US20060265776A1, “Viability” (priority 2003, published 2006)
Entries after “also recorded” stand apart in the source; their conditions may differ.

Experiments:
[1] = tested on: Arabidopsis plants; assay: Foliar spray application, herbicidal activity; format: in vivo; conditions: 2 mL spray, 5 mM active ingredient, 0.02% (v/v) Tween 20, pH 6.7
Procedure: The inventors tested a range of compounds for their potential herbicidal activity. These consisted of several nonhydrolysable ATP analogues as well as nonhydrolysable analogues of GTP, another nucleotide triphosphate. Arabidopsis plants were grown hydroponically for 2 weeks as described in Example 6B. These plants, still attached to the polyurethane foam discs, were then transferred to phytatrays that contained sand. Plants grown under high humidity conditions, achieved in these enclosed phytatrays, tend to have poor or no development of the waxy cuticle and so are ideal for spray application of solutions with the aid of common surfactants like Tween 20. The plants in each tray were sprayed with 2 mL of an aqueous solution adjusted to pH 6.7 with KOH and containing 5 mM active ingredient and 0.02% (v/v) Tween 20. Control plants were sprayed with the same solution containing only Tween 20 but no active ingredient.

[2] = tested on: Arabidopsis cell suspension cultures; assay: 2-D DIGE protein spot abundance, AMP-PCP treatment; format: cell-based; conditions: 50 μM AMP-PCP vs water, 72 hours
[3] = tested on: tobacco leaves; assay: Leaf infiltration, tobacco; format: in vivo, Nicotiana tabacum; conditions: for local tissue death after infiltration of tobacco leaves: 1 mM AMP-PCP, 1 mM ATP, apyrase, hexokinase plus glucose; for state of tobacco plant after treatment of a leaf: 5 mM AMP-PCP or equivalent amount of ATP, after 4 days
Procedure: (§1) Tobacco (Nicotiana tabacum), Arabidopsis, and bean (Phaseolus vulgaris) plants were sown in soil and raised in a growth cabinet with a 16-hour photoperiod at 20° C. and 8 hours of darkness at 15° C. The relative humidity was maintained at 60% and the photon flux density was 250 μmolm^−2 s^−1. […] Only the cotyledons of bean plants were treated. The abaxial surface of a small zone of leaf tissue was treated by infiltrating the apoplast with the solution using a syringe and hypodermic needle. The three test solutions had the following concentrations of either: 0.5 units/μL apyrase, 1.85 units/μL hexokinase plus 100 mM glucose, or 1-5 mM AMP-PCP (pH 6.5).

[4] = tested on: Black Mexican sweet corn cells; assay: Cell viability of corn suspension cells; format: cell-based, Zea mays; conditions: 1 mM ATP, 1 mM AMP-PCP, 100 units/mL apyrase, 200 units/mL hexokinase; 100 mM glucose in culture
[5] = tested on: tobacco plants; assay: Foliar spray on soil-grown tobacco plants; conditions: 5 mM in 0.02% Tween 20, 2 mL spray, three days after treatment
[6] = tested on: Arabidopsis thaliana cell suspension cultures; format: cell-based; conditions: for cell viability / cell death, in words: ADP 1 mM, AMP 1 mM, ATP 1 mM, glucose-6-phosphate 100 mM, boiled apyrase 50 units/ml, boiled hexokinase 200 units/ml with 100 mM glucose
Procedure: A. thaliana cell cultures were grown as described in example 1. Aliquots of the cell suspension (1.5 mL) were treated with a final concentration of 0, 20, 50, or 100 units/mL of apyrase. […] The dead cells had become buoyant and adhered to the walls of the vials, forming a ring just above the edge of the swirling medium. The ring of cells was sometimes dislodged and fell into the medium, resulting in apyrase-treated cultures having flakes of dead cells at the bottom of the vials.
To quantify the effect of apyrase on cell viability, the ability of the cells to grow and multiply subsequent to treatment was measured after diluting the cultures by over 30 times in fresh medium not containing any additives. This was achieved by transferring the cells treated for 3 days to 50 mL of fresh growth medium and allowing them to grow for a further 4 days. At the end of this period, triplicate 1 mL aliquots were sampled from the cultures and the volume of the cells was measured and expressed as a percentage of the culture volume. The method used to determine the packed cell volume was as follows: 1 mL cell culture aliquots were placed in 1.5 mL microfuge tubes and the cells gently compacted by centrifuging (1000 rpm., 10 minutes) in a swing-out rotor (Grundrotor 11030; Sigma laborzentrifugen GmbH, Oestrode, Germany). The level of the cells was marked on the wall of the tube and the volume of cells determined by measuring the volume of water needed to fill the tube to the marked level. The packed cell volume was expressed as the volume occupied by cells as a percentage of 1000 μL.
In each case the error bars represent the standard deviation.

[7] = tested on: Tobacco (Nicotiana tabacum), Arabidopsis, and bean (Phaseolus vulgaris) plants; assay: Leaf infiltration of extracellular ATP depletion systems, whole plants; format: in vivo; conditions: 0.5 units/μL apyrase, 1.85 units/μL hexokinase plus 100 mM glucose, 1-5 mM AMP-PCP (pH 6.5); ATP (pH 6.5)
Procedure: as §1
The concentrations used were the same as defined above unless stated otherwise.

[8] = tested on: Arabidopsis plants; conditions: cited from earlier work
[9] = tested on: Arabidopsis cell cultures; assay: H2O2 accumulation after elicitor treatment; format: cell-based; conditions: exogenous ATP with elicitor
[10] = tested on: Arabidopsis cell cultures; assay: MTT assay of cell viability after elicitor or bacteria with or without ATP; format: cell-based; conditions: 1 mM ATP, 24 hours

In the case of Nc1ncnc2c1ncn2[C@@H]1O[C@H](COP(=O)(O)OP(=O)(O)O)[C@@H](O)[C@H]1O [ADP, adenosine 5′-diphosphate], the “Effects on Arabidopsis plants after foliar application” value (“Effects on Arabidopsis plants” for short) [1] was “not phytotoxic and None”.

For Nc1ncnc2c1ncn2C1OC(COP(=O)(O)OP(=O)(O)CP(=O)(O)O)C(O)C1O (stereo not drawn) [AMP-PCP, β,γ-methyleneadenosine 5′-triphosphate], the “Ratio, spot 613 H84453 Probable heat shock protein [imported]” value [2] was −1.26, the “Ratio, spot 690 gi30693102 NADH dehydrogenase (ubiquinone), mitochondrial” value [2] was −1.44 and the “Ratio, spot 703 Luminal binding protein 1 precursor (BiP-1)” value [2] was 1.29. For the same compound, the “Ratio, spot 707 Luminal binding protein 1 precursor (BiP-1)” value [2] was 1.45, the “Ratio, spot 740 Heat shock cognate 70 kDa protein 2 (hsc70-2)” value [2] was −1.22 and the “Ratio, spot 778 gi1072473 dnaK-type molecular chaperone hsc70.1” value [2] was 1.15. The “Ratio, spot 795 gi15232682 Heat shock protein hsc70-3” value [2] was 1.2, the “Ratio, spot 906 gi15219234 ATPase 70 kDa subunit-related protein” value [2] was 1.19 and the “Ratio, spot 1063 gi30687521 Putative protein disulfide isomerase” value [2] was 1.24. For the same compound, the “Ratio, spot 1069 gi15232827 Threonine ammonia lyase” value [2] was −1.23, the “Ratio, spot 1074 gi11094242 Cytosolic phosphoglucose isomerase” value [2] was 1.2 and the “Ratio, spot 1098 gi288063 Ketol-acid reductoisomerase” value [2] was −1.12. For the same compound, the “Ratio, spot 1135 gi9082270 Alanine aminotransferase” value [2] was 1.2, the “Ratio, spot 1148 gi21593375 Unknown protein” value [2] was 1.24 and the “Ratio, spot 1155 gi30684419 Dihydrolipoamide dehydrogenase 2, mitochondrial” value [2] was 1.34. For the same compound, the “Ratio, spot 1187 gi21954071 Putative alanine aminotransferase” value [2] was 1.41, the “Ratio, spot 1196 gi14916970 ATP synthase alpha chain, mitochondrial” value [2] was 1.31 and the “Ratio, spot 1200 gi15241168 Tubulin alpha-3/alpha-5 chain (TUA3)” value [2] was 1.35. For the same compound, the “Ratio, spot 1205 gi2493132 Vacuolar ATP synthase subunit B isoform 2” value [2] was 1.24, the “Ratio, spot 1229 H+-transporting ATP synthase beta chain” value [2] was 1.4 and the “Ratio, spot 1241 Enolase (2-phospho-D-glycerate hydrolase)” value [2] was 1.39. For the same compound, the “Ratio, spot 1245 H+-transporting ATP synthase beta chain” value [2] was 1.23, the “Ratio, spot 1254 gi15227559 Tubulin beta-7 chain” value [2] was −1.2 and the “Ratio, spot 1257 Enolase (2-phospho-D-glycerate hydrolase)” value [2] was 1.51. The “Ratio, spot 1264 Enolase (2-phospho-D-glycerate hydrolase)” value [2] was 1.32, the “Ratio, spot 1281 gi15234516 Putative thioredoxin” value [2] was 1.23 and the “Ratio, spot 1282 Adenosylhomocysteinase” value [2] was 1.46. The “Ratio, spot 1292 Adenosylhomocysteinase” value [2] was 1.29, the “Ratio, spot 1439 gi14594802 Translation initiation factor elf-4A1” value [2] was 1.84 and the “Ratio, spot 1460 gi7485313 Hypothetical protein F10M10.120” value [2] was −1.1. For the same compound, the “Ratio, spot 1481 gi15234354 S-adenosylmethionine synthetase 2” value [2] was −1.3, the “Ratio, spot 1497 gi21536853 Putative phosphoglycerate kinase” value [2] was 1.47 and the “Ratio, spot 1516 Putative S-adenosylmethionine synthetase” value [2] was 1.22. The “Ratio, spot 1649 gi21593388 12-oxophytodienoate reductase (OPR1)” value [2] was −1.22, the “Ratio, spot 1718 gi15229530 Glutamine synthetase-related protein” value [2] was −1.13 and the “Ratio, spot 1748 gi21593240 GAPDH C subunit (GapC)” value [2] was 1.21. The “Ratio, spot 1817 gi3435286 GAPDH C subunit (GapC)” value [2] was 1.13, the “Ratio, spot 1868 gi15226185 Putative fructose-bisphosphate aldolase” value [2] was −1.35 and the “Ratio, spot 1892 gi14334740 Putative fructose-bisphosphate aldolase” value [2] was −1.71. For the same compound, the “Ratio, spot 1920 gi15237888 Putative NADP-dependent oxidoreductase (P1)” value [2] was −1.45, the “Ratio, spot 1943 gi25283601 Malate dehydrogenase [EC 1.1.1.37], chloroplast” value [2] was 1.22 and the “Ratio, spot 1959 Malate dehydrogenase [NAD], mitochondrial” value [2] was −1.11. For the same compound, the “Ratio, spot 1964 gi15232468 Malate dehydrogenase [NAD], mitochondrial” value [2] was 1.21, the “Ratio, spot 2221 gi21593226 Putative esterase D” value [2] was −1.24 and the “Ratio, spot 2282 gi15228883 Expressed protein” value [2] was −1.74. The “Ratio, spot 2370 gi18390982 ATP-dependent Clp protease proteolytic subunit” value [2] was 1.38, the “Ratio, spot 2422 gi20260140 Multicatalytic endopeptidase complex alpha subunit” value [2] was −1.21 and the “Ratio, spot 2443 L-ascorbate peroxidase 1, cytosolic (APX1)” value [2] was −2.51. For the same compound, the “Ratio, spot 2552 L-ascorbate peroxidase 1, cytosolic (APX1)” value [2] was −1.47, the “Ratio, spot 2562 gi15224582 Putative glutathione S-transferase” value [2] was 1.4 and the “Ratio, spot 2605 gi15239652 Putative quinone reductase” value [2] was 1.38. For the same compound, the “Ratio, spot 2626 gi15228805 20S proteasome beta subunit D (PBD1)” value [2] was 1.14, the “Ratio, spot 2690 gi20138157 Phospholipid hydroperoxide glutathione peroxidase” value [2] was 1.21 and the “Ratio, spot 2734 gi18412406 Expressed protein” value [2] was −1.93. The “Ratio, spot 2832 gi30697295 Actin depolymerizing factor 3-like prptein” value [2] was −1.29, the “Ratio, spot 2842 gi15218373 40S ribosomal protein S12 (RPS12A)” value [2] was −1.3 and the “local tissue death after infiltration of tobacco leaves” value [3] was “caused localised tissue death”. For the same compound, the “state of tobacco plant after treatment of a leaf” value [3] was “not only had the treated leaf died (white arrowhead), but so too had portions of some upper, untreated leaves”, the “viability of corn cells” value [4] was “caused significant cell death” and the “state of tobacco plants” value [5] was “started to die”. For the same compound, the “cell viability with increasing concentration (dose-response), in words” value ([6]; apyrase 0-100 units/mL, hexokinase 0-200 units/mL with 100 mM glucose, AMP-PCP 0-1.5 mM) was “loss in cell viability” and the “necrotic lesions after local leaf infiltration” value [7] was “development of necrotic lesions in the area where the application was made within 2 days of treatment; also recorded: localised necrotic lesions”.

For Nc1ncnc2c1ncn2[C@@H]1O[C@H](COP(=O)(O)OP(=O)(O)NP(=O)(O)O)[C@@H](O)[C@H]1O [AMP-PNP, adenosine 5′-(β,γ-imido)triphosphate], the “Effects on Arabidopsis plants” value [1] was “had herbicidal activity; also recorded: Phytotoxic”.

With Nc1ncnc2c1ncn2[C@@H]1O[C@H](COP(=O)(O)O)[C@@H](O)[C@H]1O [AMP] the “cell viability / cell death, in words” value [6] was “did not result in any change in cell viability”.

For Nc1ncnc2c1ncn2[C@@H]1O[C@H](COP(=O)(O)OP(=O)(O)OP(O)(O)=S)[C@@H](O)[C@H]1O [ATP-γ-S, adenosine 5′-(γ-thio)triphosphate], the “Effects on Arabidopsis plants” value [1] was “had herbicidal activity; also recorded: Phytotoxic”.

For Nc1ncnc2c1ncn2[C@@H]1O[C@H](COP(=O)(O)OP(=O)(O)OP(=O)(O)O)[C@@H](O)[C@H]1O [ATP], the “Effects on Arabidopsis plants” value [1] was “remained healthy and None”, the “local tissue death after infiltration of tobacco leaves” value [3] was “did not” and the “state of tobacco plant after treatment of a leaf” value [3] was “remained entirely healthy”. The “resistance of plants to xenobiotics” value ([8]; adding exogenous ATP) was “decreased the resistance of plants to xenobiotics”, the H2O2 accumulation [9] was “failed to prevent H2O2 accumulation” and the “viability of corn cells” value [4] was “did not affect the viability of the cells”. For the same compound, the “effect of exogenous ATP on reduction in cell viability caused by Ps. syringae or Fusarium elicitor” value [10] was “substantially negated”, the “state of tobacco plants” value [5] was “unaffected” and the “cell viability / cell death, in words” value [6] was “did not cause death of treated cells”. For the same compound, the “necrotic lesions after local leaf infiltration” value [7] was “did not result in cell death”.

For Nc1nc2c(ncn2[C@@H]2O[C@H](COP(=O)(O)OP(=O)(O)OP(=O)(O)O)[C@@H](O)[C@H]2O)c(=O)[nH]1 [GTP, guanosine 5′-triphosphate], the “Effects on Arabidopsis plants” value [1] was “does not and None”.

For Nc1nc2c(ncn2[C@@H]2O[C@H](COP(=O)(O)OP(=O)(O)OP(O)(O)=S)[C@@H](O)[C@H]2O)c(=O)[nH]1 [GTP-γ-S, guanosine 5′-(γ-thio)triphosphate], the “Effects on Arabidopsis plants” value [1] was “has herbicidal properties; also recorded: Phytotoxic”.

With [Na+].[Na+].[Na+].[O-]P([O-])([O-])=S [NaPO3S, sodium thiophosphate] the “Effects on Arabidopsis plants” value [1] was “did not cause death and None”.

In the case of O=C[C@H](O)[C@@H](O)[C@H](O)[C@H](O)COP(=O)(O)O [glucose-6-phosphate], the “cell viability / cell death, in words” value [6] was “did not affect cell viability”.

In the case of Nc1ncnc2c1ncn2[C@@H]1O[C@H](COP(=O)(O)CP(=O)(O)O)[C@@H](O)[C@H]1O [α,β-methyladenosine 5′ diphosphate], the “cycloheximide-resistance of plants over-expressing ecto-ATPase” value ([8]; co-administered with cycloheximide) is given as “lost their cycloheximide-resistance”.
